Assay results as given in patent publication US20240269304A1, “BCL-XL INHIBITOR ANTIBODY-DRUG CONJUGATES AND METHODS OF USE THEREOF” (Novartis AG, priority 2020, published 2024).
Where two headings read alike, the source gives them in different places.

Tested on: H1650 cells
Test: CellTiterGlo (CTG) cell viability, 3D, 120 h, H1650 (Example 8)
Format: cell-based, human
Conditions: Homo sapiens, NCI-H1650, H1650 3D
Description: H1650 cells were cultivated in RPMI supplemented with 10% heat inactivated fetal bovine serum, penicillin (100 IU/ml), streptomycin (100 μg/ml) and L-glutamine (2 mM). Cell lines were cultured at 37° C. in a humidified atmosphere containing 5% 002. Cells were seeded in 96 microwell round bottom plates (96 microwell Low attachment plates , Costar reference 7007) and exposed to the payloads or ADCs for 120 h (serially diluted; 9 concentrations each, duplicates). Effects of payloads or ADCs on cell viability were assessed after 5 days of incubation at 37° C./5% CO2 by quantification of cellular ATP levels using CellTiterGlo at 75 μL reagent/well. All the conditions were tested in duplicates. Luminescence was quantified on a multipurpose plate reader. IC50S were calculated using standard four-parametric curve fitting. […] Each experiment was performed at least twice, with results being reproducible.

[1] = experiment n1, read-out: H1650 3D CTG IC50 n1
[2] = experiment n2, read-out: H1650 3D CTG IC50 n2
[3] = mean of n1 and n2, read-out: H1650 3D CTG IC50 Mean of n1 and n2

| IC50 [1] [nM] | IC50 [2] [nM] | IC50 [3] [nM] | SMILES |
| --- | --- | --- | --- |
| 10.7 | 11.8 | 11.2 | Cc1c(Nc2nc3ccccc3s2)nnc2c1CCCN2c1ccc(-c2cnn(CC34CC5(C)CC(C)(CC(CCCNCCC(=O)O)(C5)C3)C4)c2C)c(C(=O)O)n1 [P54, 6-[3-(1,3-benzothiazol-2-ylamino)-4-methyl-6,7-dihydro-5H-pyrido[2,3-c]pyridazin-8-yl]-3-[1-[[3-[3-(2-carboxyethylamino)propyl]-5,7-dimethyl-1-adamantyl]methyl]-5-methyl-pyrazol-4-yl]pyridine-2-carboxylic acid] |
| 6.15 | 6.88 | 6.51 | Cc1c(Nc2nc3ccccc3s2)nnc2c1CCCN2c1ccc(-c2cnn(CC34CC5(C)CC(C)(CC(CCCN(C)CC(=O)O)(C5)C3)C4)c2C)c(C(=O)O)n1 [P55, 6-[3-(1,3-benzothiazol-2-ylamino)-4-methyl-6,7-dihydro-5H-pyrido[2,3-c]pyridazin-8-yl]-3-[1-[[3-[3-[carboxymethyl(methyl)amino]propyl]-5,7-dimethyl-1-adamantyl]methyl]-5-methyl-pyrazol-4-yl]pyridine-2-carboxylic acid] |
| 13.9 | 2.95 | 8.43 | Cc1c(Nc2nc3ccccc3s2)nnc2c1CCCN2c1ccc(-c2cnn(CC34CC5(C)CC(C)(CC(CCCN(C)CCC(=O)O)(C5)C3)C4)c2C)c(C(=O)O)n1 [P56, 6-[3-(1,3-benzothiazol-2-ylamino)-4-methyl-6,7-dihydro-5H-pyrido[2,3-c]pyridazin-8-yl]-3-[1-[[3-[3-[2-carboxyethyl(methyl)amino]propyl]-5,7-dimethyl-1-adamantyl]methyl]-5-methyl-pyrazol-4-yl]pyridine-2-carboxylic acid] |
| 6.75 | 14.3 | 10.5 | Cc1c(Nc2nc3ccccc3s2)nnc2c1CCCN2c1ccc(-c2cnn(CC34CC5(C)CC(C)(C3)CC(OCCN(C)CCCC(=O)O)(C5)C4)c2C)c(C(=O)O)n1 [P57, 6-[3-(1,3-benzothiazol-2-ylamino)-4-methyl-6,7-dihydro-5H-pyrido[2,3-c]pyridazin-8-yl]-3-[1-[[3-[2-[3-carboxypropyl(methyl)amino]ethoxy]-5,7-dimethyl-1-adamantyl]methyl]-5-methyl-pyrazol-4-yl]pyridine-2-carboxylic acid] |
| 5.73 | 9.08 | 7.41 | Cc1c(Nc2nc3ccccc3s2)nnc2c1CCCN2c1ccc(-c2cnn(CC34CC5(C)CC(C)(CC(CCCN(C)CCCC(=O)O)(C5)C3)C4)c2C)c(C(=O)O)n1 [P58, 6-[3-(1,3-benzothiazol-2-ylamino)-4-methyl-6,7-dihydro-5H-pyrido[2,3-c]pyridazin-8-yl]-3-[1-[[3-[3-[3-carboxypropyl(methyl)amino]propyl]-5,7-dimethyl-1-adamantyl]methyl]-5-methyl-pyrazol-4-yl]pyridine-2-carboxylic acid] |
| 0.52 |  | 0.52 | Cc1c(Nc2nc3ccccc3s2)nnc2c1CCCN2c1ccc(-c2cnn(CC34CC5(C)CC(C)(C3)CC(OCCN(C)CCCO)(C5)C4)c2C)c(C(=O)O)n1 [P62, 6-[3-(1,3-benzothiazol-2-ylamino)-4-methyl-6,7-dihydro-5H-pyrido[2,3-c]pyridazin-8-yl]-3-[1-[[3-[2-[3-hydroxypropyl(methyl)amino]ethoxy]-5,7-dimethyl-1-adamantyl]methyl]-5-methyl-pyrazol-4-yl]pyridine-2-carboxylic acid] |
| 3.73 | 2.03 | 2.88 | Cc1c(Nc2nc3cc(F)ccc3s2)nnc2c1CCCN2c1ccc(-c2cnn(CC34CC5(C)CC(C)(C3)CC(OCCN3CCCC3)(C5)C4)c2C)c(C(=O)O)n1 [P63, 3-[1-[[3,5-dimethyl-7-(2-pyrrolidin-1-ylethoxy)-1-adamantyl]methyl]-5-methyl-pyrazol-4-yl]-6-[3-[(5-fluoro-1,3-benzothiazol-2-yl)amino]-4-methyl-6,7-dihydro-5H-pyrido[2,3-c]pyridazin-8-yl]pyridine-2-carboxylic acid] |
| 1.6 | 2.9 | 2.25 | Cc1ccc2nc(Nc3nnc4c(c3C)CCCN4c3ccc(-c4cnn(CC56CC7(C)CC(C)(C5)CC(OCCN5CCCC5)(C7)C6)c4C)c(C(=O)O)n3)sc2c1 [P64, 3-[1-[[3,5-dimethyl-7-(2-pyrrolidin-1-ylethoxy)-1-adamantyl]methyl]-5-methyl-pyrazol-4-yl]-6-[4-methyl-3-[(6-methyl-1,3-benzothiazol-2-yl)amino]-6,7-dihydro-5H-pyrido[2,3-c]pyridazin-8-yl]pyridine-2-carboxylic acid] |
| 1 | 1.2 | 1.1 | Cc1c(Nc2nc3ccc(F)cc3s2)nnc2c1CCCN2c1ccc(-c2cnn(CC34CC5(C)CC(C)(C3)CC(OCCN3CCCC3)(C5)C4)c2C)c(C(=O)O)n1 [P65, 3-[1-[[3,5-dimethyl-7-(2-pyrrolidin-1-ylethoxy)-1-adamantyl]methyl]-5-methyl-pyrazol-4-yl]-6-[3-[(6-fluoro-1,3-benzothiazol-2-yl)amino]-4-methyl-6,7-dihydro-5H-pyrido[2,3-c]pyridazin-8-yl]pyridine-2-carboxylic acid] |
| 0.49 | 0.22 | 0.355 | Cc1c(Nc2nc3ccccc3s2)nnc2c1CCCN2c1ccc(-c2cnn(CC34CC5(C)CC(C)(CC(CCCN(C)C)(C5)C3)C4)c2C)c(C(=O)O)n1 [P66, 6-[3-(1,3-benzothiazol-2-ylamino)-4-methyl-6,7-dihydro-5H-pyrido[2,3-c]pyridazin-8-yl]-3-[1-[[3-[3-(dimethylamino)propyl]-5,7-dimethyl-1-adamantyl]methyl]-5-methyl-pyrazol-4-yl]pyridine-2-carboxylic acid] |
| 0.84 | 0.68 | 0.76 | Cc1c(Nc2nc3ccccc3s2)nnc2c1CCCN2c1ccc(-c2cnn(CC34CC5(C)CC(C)(CC(CCCN(C)CCCO)(C5)C3)C4)c2C)c(C(=O)O)n1 [P68, 6-[3-(1,3-benzothiazol-2-ylamino)-4-methyl-6,7-dihydro-5H-pyrido[2,3-c]pyridazin-8-yl]-3-[1-[[3-[3-[3-hydroxypropyl(methyl)amino]propyl]-5,7-dimethyl-1-adamantyl]methyl]-5-methyl-pyrazol-4-yl]pyridine-2-carboxylic acid] |
| 3.78 | 5.56 | 4.67 | Cc1c(Nc2nc3ccccc3s2)nnc2c1CCCN2c1ccc(-c2cnn(CC34CC5(C)CC(C)(CC(CCCNCC[C@H](O)CO)(C5)C3)C4)c2C)c(C(=O)O)n1 [P69, 6-[3-(1,3-benzothiazol-2-ylamino)-4-methyl-6,7-dihydro-5H-pyrido[2,3-c]pyridazin-8-yl]-3-[1-[[3-[3-[[(3S)-3,4-dihydroxybutyl]amino]propyl]-5,7-dimethyl-1-adamantyl]methyl]-5-methyl-pyrazol-4-yl]pyridine-2-carboxylic acid] |
| 9.65 | 9.49 | 9.57 | Cc1c(Nc2nc3ccccc3s2)nnc2c1CCCN2c1ccc(-c2cnn(CC34CC5(C)CC(C)(C3)CC(OCCN(C)CCC(=O)O)(C5)C4)c2C)c(C(=O)O)n1 [P70, 6-[3-(1,3-benzothiazol-2-ylamino)-4-methyl-6,7-dihydro-5H-pyrido[2,3-c]pyridazin-8-yl]-3-[1-[[3-[2-[2-carboxyethyl(methyl)amino]ethoxy]-5,7-dimethyl-1-adamantyl]methyl]-5-methyl-pyrazol-4-yl]pyridine-2-carboxylic acid] |
